Test systems include 786-0; A498; CAKI-1; CCRF-CEM; HCC 2998; HCT-15; HT-29; MOLT-4; RPMI-8226; RXF 393; SF-295; SF-539; SK-OV-3; SNB-19; SNB-75; TK-10; U-251; UO-31; Hs-578T.
What all share (test): NCI tumour cell line growth inhibition, 48 h

Each structure is given as a SMILES string.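 Where inhibition never reached the appropriate level, the endpoint shown equals the highest concentration tested. Otherwise, values were interpolated linearly from a five-concentration, 48-hour dose response in 96-well plates. GI50: concentration for 50% inhibition of growth.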 The source made the active and inactive calls. Cut-off read from the data, not from the text of the source: active = GI50 up to about 1.1 µM and inactive = higher. A value given as a limit tells only on which side of the number the result lay.

As to `C1OC1CO[C@@H]1CO[C@H]2[C@@H]1OC[C@H]2OCC1CO1` (stereo partly drawn), the GI50 in the assay on 786-0 is > 100 µM (inactive); with A498, > 100 µM (inactive); in the assay on CAKI-1, 67.9 µM (inactive); in the assay with CCRF-CEM, > 100 µM (inactive); in the assay with HCC 2998 it was > 100 µM (inactive); in the assay with HCT-15, greater than 100 µM. Also, the GI50 with HT-29 is > 100 µM (inactive); in the assay on MOLT-4, 78.2 µM (inactive); with RPMI-8226 it was > 100 µM (inactive); in the assay on RXF 393 it was > 100 µM (inactive); in the assay with SF-295, > 100 µM (inactive); in the assay on SF-539, > 100 µM (inactive). For the same compound, the GI50 in the assay with SK-OV-3, in the assay with SNB-19, with SNB-75, in the assay with TK-10, in the assay on U-251 and in the assay with UO-31 was > 100 µM (inactive) throughout.
Take `O=C(COc1ccc2c(=O)cc(-c3ccc(Cl)cc3)oc2c1)N1CCN(c2ccccc2)CC1`: the GI50 is > 100 µM (inactive) with 786-0; 5.69 µM (inactive) with A498; > 100 µM (inactive) with CAKI-1; > 100 µM (inactive) in the assay on HCC 2998; greater than 100 µM in the assay on HCT-15; > 100 µM (inactive) in the assay on HT-29. The GI50 in the assay on MOLT-4 is 6.56 µM (inactive); with RPMI-8226, > 100 µM (inactive); with RXF 393 it was > 100 µM (inactive); in the assay on SF-295, > 100 µM (inactive); with SF-539, > 100 µM (inactive); with SK-OV-3, > 100 µM (inactive). For the same compound, the GI50 in the assay on SNB-19 was > 100 µM (inactive); with SNB-75, > 100 µM (inactive); in the assay on TK-10 it was > 100 µM (inactive); in the assay on U-251, > 100 µM (inactive); in the assay with UO-31 it was 1.73 µM (inactive).
Regarding `O=C1N[C@@H](O)[C@@H]2ON=C(c3ccccc3)[C@H]12`, the GI50 in the assay with 786-0 was > 100 µM (inactive); in the assay on A498 it was > 100 µM (inactive); in the assay with CAKI-1 it was > 100 µM (inactive); in the assay with CCRF-CEM it was > 100 µM (inactive); in the assay with HCC 2998, > 100 µM (inactive); in the assay with HCT-15 it was greater than 100 µM. Besides, the GI50 in the assay with HT-29, with MOLT-4, with RPMI-8226, with RXF 393, in the assay with SF-295 and with SF-539 was > 100 µM (inactive) each time. Further, the GI50 in the assay on SK-OV-3, with SNB-19, in the assay with SNB-75, in the assay with TK-10, with U-251 and with UO-31 was > 100 µM (inactive) throughout.
`COc1ccc(-c2nc3c(nc2-c2ccc(OC)cc2)C(N)=NS(=O)(=O)N3)cc1`: the GI50 in the assay on 786-0 is > 100 µM (inactive); with A498, > 100 µM (inactive); with CAKI-1, > 100 µM (inactive); with CCRF-CEM, > 100 µM (inactive); in the assay with HCC 2998 it was > 100 µM (inactive); in the assay with HCT-15, greater than 100 µM. Also, the GI50 in the assay on HT-29, in the assay with MOLT-4, in the assay with RPMI-8226, with RXF 393, in the assay with SF-295 and with SF-539 was > 100 µM (inactive) each time. Also, the GI50 in the assay on SK-OV-3, in the assay on SNB-19, in the assay with SNB-75, in the assay with TK-10, in the assay with U-251 and with UO-31 was > 100 µM (inactive) in each case.
`CCOc1ccc(N2C(=O)/C(=C/c3ccc(N(CCC#N)CCC#N)cc3)N=C2c2cc([N+](=O)[O-])ccc2Cl)cc1`: the GI50 is 12.4 µM (inactive) with 786-0; 48.6 µM (inactive) in the assay on A498; 14.8 µM (inactive) with CAKI-1; 37.2 µM (inactive) in the assay on HCC 2998; 33.8 µM in the assay on HCT-15; 0.191 µM (active) in the assay on MOLT-4. Besides, the GI50 was 15.7 µM (inactive) in the assay with RPMI-8226; 12.2 µM (inactive) in the assay on RXF 393; 24.2 µM (inactive) with SF-295; 27.2 µM (inactive) with SF-539; > 100 µM (inactive) with SK-OV-3; 35.8 µM (inactive) with SNB-19. Moreover, the GI50 in the assay on SNB-75 was 30.3 µM (inactive); in the assay on TK-10, 58.1 µM (inactive); with U-251 it was 51.5 µM (inactive); with UO-31, 39.4 µM (inactive).
As to `COc1ccc(-n2c(=O)[nH]n(C(C)=O)c2=O)cc1`, the GI50 with 786-0 is > 100 µM (inactive); in the assay with A498, > 100 µM (inactive); in the assay on CAKI-1, > 100 µM (inactive); with CCRF-CEM it was > 100 µM (inactive); with HCT-15, greater than 100 µM; in the assay on HT-29 it was > 100 µM (inactive). Besides, the GI50 in the assay with Hs-578T, with MOLT-4, in the assay with RPMI-8226, in the assay on RXF 393, with SF-295 and in the assay with SF-539 was > 100 µM (inactive) in each case. For the same compound, the GI50 in the assay with SNB-19, in the assay on SNB-75, with TK-10, in the assay on U-251 and with UO-31 was > 100 µM (inactive) throughout.
`O=C(/C=C/c1ccc(OCCCCCCCCCCOc2ccc(/C=C/C(=O)c3ccc(Cl)cc3)cc2)cc1)c1ccc(Cl)cc1`: the GI50 in the assay with 786-0 is > 100 µM (inactive); with A498, > 100 µM (inactive); in the assay on CAKI-1, > 100 µM (inactive); in the assay with CCRF-CEM it was > 100 µM (inactive); in the assay on HCC 2998, > 100 µM (inactive); with HCT-15, greater than 100 µM. In addition, the GI50 in the assay on HT-29, in the assay with MOLT-4, with RPMI-8226, in the assay with RXF 393, with SF-295 and in the assay with SF-539 was > 100 µM (inactive) each time. For the same compound, the GI50 in the assay with SK-OV-3, with SNB-19, with SNB-75, in the assay on TK-10, in the assay with U-251 and in the assay on UO-31 was > 100 µM (inactive) each time.
Turning to `O=c1c(F)cn2c(=O)n1CCCCCCCn1c(=O)c(F)cn(c1=O)CCCCCCC2`, the GI50 was 40.7 µM (inactive) in the assay on 786-0; 32 µM (inactive) with A498; 78.3 µM (inactive) with CAKI-1; 76 µM (inactive) in the assay on CCRF-CEM; > 100 µM (inactive) in the assay with HCC 2998; greater than 100 µM in the assay with HCT-15. In addition, the GI50 in the assay with HT-29 is 50.4 µM (inactive); in the assay on MOLT-4, > 100 µM (inactive); with RPMI-8226 it was > 100 µM (inactive); in the assay with RXF 393 it was 39.1 µM (inactive); in the assay on SF-295, > 100 µM (inactive); with SF-539, 33.1 µM (inactive). Moreover, the GI50 with SK-OV-3 is > 100 µM (inactive); in the assay on SNB-19 it was > 100 µM (inactive); with SNB-75 it was 0.105 µM (active); with TK-10, 90.2 µM (inactive); in the assay on U-251, > 100 µM (inactive); in the assay on UO-31, > 100 µM (inactive).
For the compound `O=C1c2ccccc2C(=O)c2nc(-c3ccccc3)c(-c3ccccc3)nc21`, the GI50 is > 61.7 µM (inactive) with 786-0; 28.2 µM (inactive) in the assay with A498; > 100 µM (inactive) in the assay on CAKI-1; > 100 µM (inactive) with CCRF-CEM; > 100 µM (inactive) with HCC 2998; greater than 88.1 µM in the assay with HCT-15. Moreover, the GI50 is 21.7 µM (inactive) in the assay on HT-29; > 100 µM (inactive) in the assay on MOLT-4; > 100 µM (inactive) in the assay with RPMI-8226; > 43.5 µM (inactive) in the assay on RXF 393; 11 µM (inactive) in the assay on SF-295; 24.7 µM (inactive) with SF-539. In addition, the GI50 with SK-OV-3 was > 100 µM (inactive); with SNB-19 it was 24.9 µM (inactive); in the assay with SNB-75 it was 8.15 µM (inactive); in the assay on TK-10 it was > 100 µM (inactive); in the assay on U-251, > 67 µM (inactive); in the assay on UO-31 it was > 100 µM (inactive).
As to `Nc1ncnc2c1ncn2C1CCC(COS(N)(=O)=O)C1` (stereo not drawn), the GI50 in the assay with 786-0 was > 100 µM (inactive); with CAKI-1, > 100 µM (inactive); in the assay with CCRF-CEM, > 100 µM (inactive); in the assay on HCC 2998 it was > 100 µM (inactive); with HCT-15, greater than 100 µM; in the assay on HT-29, > 100 µM (inactive). Moreover, the GI50 in the assay on Hs-578T was 65.5 µM (inactive); in the assay with MOLT-4, 46.9 µM (inactive); with RPMI-8226, > 100 µM (inactive); in the assay with RXF 393, > 100 µM (inactive); with SF-295, > 100 µM (inactive); with SF-539 it was 27 µM (inactive). In addition, the GI50 is > 100 µM (inactive) with SK-OV-3; > 100 µM (inactive) in the assay with SNB-19; 89.5 µM (inactive) with SNB-75; > 100 µM (inactive) in the assay on TK-10; > 100 µM (inactive) in the assay with U-251; > 100 µM (inactive) in the assay on UO-31.
As to `CC1CN=C(N(C(=O)Nc2ccc(F)c(Cl)c2)c2ccccc2)S1` (stereo not drawn), the GI50 in the assay with 786-0 was 22.9 µM (inactive); in the assay with A498, 21.1 µM (inactive); with CAKI-1, 21 µM (inactive); with CCRF-CEM it was 31.3 µM (inactive); in the assay on HCT-15, 22.4 µM; with HT-29, 22.9 µM (inactive). In addition, the GI50 in the assay with Hs-578T was 38.5 µM (inactive); in the assay with MOLT-4 it was 16.7 µM (inactive); in the assay with RPMI-8226, 25.8 µM (inactive); in the assay with SF-295, 31.3 µM (inactive); in the assay on SF-539 it was 41.1 µM (inactive); in the assay on SK-OV-3, 33.6 µM (inactive). Further, the GI50 is 43.2 µM (inactive) in the assay with SNB-19; 23.2 µM (inactive) in the assay on SNB-75; 25.9 µM (inactive) in the assay on TK-10; 20.6 µM (inactive) in the assay with U-251; 25.8 µM (inactive) in the assay on UO-31.

The record behind these values is ChEMBL document CHEMBL1201862, “PubChem BioAssay data set” (2004).
